Results as given in article PMC7356390, “Dehydrozingerone, a Curcumin Analog, as a Potential Anti-Prostate Cancer Inhibitor In Vitro and In Vivo” (Molecules, 2020).

Legend:
PLS10 cells xenograft = assay: In vivo antitumor activity, PLS10 cells xenograft model; set-up: species or system male BALB/c-nu/nu mice; details: for Body Weights at the end of the experiment / Organ Weights, Kidneys / Organ Weights, Livers: mean ± S.E.; for Ki67-labeling index in tumor sections: control 63; for tumor volume: control 96 cm^3; for CD31-positive areas in tumors (angiogenesis): vs control, p < 0.05; for survival percentage of nude mice: male, BALB/c-nu/nu, mouse, in vivo, 5 weeks
Protocol: Figure 4 DZG inhibited cell proliferation and angiogenesis in vivo using PLS10 cells xenograft model. Mice were subcutaneously injected with PLS10 cells and treated two times per week with Cur or DZG (30 mg/kg body weight) for a period of 5 weeks. Tumor volume was measured twice a week and at the end of the study (a). The tumor masses were collected, sectioned and analyzed by immunohistochemistry to detect the Ki67-labeling index (b), % TUNEL (Terminal deoxynucleotidyl transferase dUTP nick end labeling)-positive cells (c) and % of the vessel area (d). Data presented in bar diagrams represent the mean ± S.E of eight mice in the control and nine mice in the treatment groups. ** p < 0.01 vs. control (one-way ANOVA, Dunnett’s multiple comparisons test, tested groups vs. control group).
The in vivo antitumor activity of DZG or Cur was examined using five-week-old male BALB/c-nu/nu mice. Mice were randomly divided into 3 groups, with up to 8 or 9 mice per group. The PLS10 cells (5.0 × 10^5) were subcutaneously injected into each mouse. The treatments were initiated 2 days after PLS10 cells injections, at which point, mice received 50% DMSO in normal saline solution (NSS) (vehicle control) at 30 mg/kg body weight of Cur or DZG via i.p. injection two times a week for five weeks. The body weight of each mouse was measured twice a week during the experiment. At week 5 of the experiment, mice were euthanized, and primary tumors and organs, such as lungs, liver, kidneys and lymph nodes, were removed and fixed in 10% buffered formalin. The tumor volume of each mouse was measured and calculated according to the following formulation: 0.52 × (axis1 × axis2 × axis3). A section of the primary tumor, lung, liver, and kidney specimens were collected and fixed in 10% buffered formalin. Tissue sections of the primary tumors and organs were stained with H&E.
The paraffin-embedded samples were sectioned and stained with rabbit monoclonal anti-Ki67 (SP6; Acris Antibodies GmbH, Herford, Germany) and rabbit polyclonal anti-CD31 antibodies (Abcam, Cambridge, UK) and sequentially stained with an anti-rabbit secondary antibody and avidin-biotin complex. The binding complexes were then visualized with diamino-benzidine. Subsequently, the sections were then counterstained lightly with hematoxylin for microscopic examination. The number of Ki67-staining cells for a minimum of 1000 cells was counted to determine the labeling index. For quantitative analysis of the vessel area, CD31-positive areas per the total area section were determined under microscopy (BZ-9000).
The paraffin-embedded samples were sectioned, and the degree of apoptosis in the tumor tissue was determined using a TUNEL assay (In situ Apoptosis Detection Kit; Takara Bio Inc., Ohtsu, Japan). The TUNEL assay was performed according to the manufacturer’s instructions. The number of TUNEL-labeled cells in a minimum of 1000 cells was counted in order to establish the labeling index.

PLS10 cells = assay: WST-1 cell viability assay; assay type: cell-based; details: Rattus norvegicus; 48 h, WST-1 assay, mean ± S.D.; read-out: IC50, cell proliferation of PLS10 cells
Protocol: Figure 2 Cytotoxicity of Cur (a) and DZG (b) on PLS10 cells. Cells were treated with Cur (0–50 μM) or DZG (0–200 µM) and incubated for 48 h. Cell viability was measured by WST-1 assay. Data are represented as mean ± S.D. of three independent experiments. * p < 0.05, ** p < 0.01 and *** p < 0.001 vs. control (one-way ANOVA, Dunnett’s multiple comparisons test, tested groups vs. control group). PLS10 cells (2.0 × 10^3 cells per well) were plated in a 96-well plate for 24 h. Cur and DZG were dissolved in DMSO and diluted to the final concentration in the culture medium. After that, the culture medium containing Cur (0–50 µM) or DZG (0–200 µM) in 0.5% DMSO (vehicle control) were added into the cells. The cells were incubated in 5% CO2 at 37°C for a further 48 h, and cell viability was determined using the WST-1 colorimetric assay (Roche Diagnostics, Mannheim, Germany). In each experiment, determinations were carried out in triplicate.

[1] = 30 mg/kg i.p. two times a week for five weeks

| SMILES | Body Weights at the end of the experiment (PLS10 cells xenograft; [1]) | Organ Weights, Kidneys (PLS10 cells xenograft; [1]) | Organ Weights, Livers (PLS10 cells xenograft; [1]) | apoptotic cells (TUNEL-positive) in tumor sections (PLS10 cells xenograft; 30 mg/kg i.p. two times a week for five weeks, control 7%) | Ki67-labeling index in tumor sections (PLS10 cells xenograft; [1]) | tumor volume (PLS10 cells xenograft; [1]) | CD31-positive areas in tumors (angiogenesis) (PLS10 cells xenograft; [1]) | survival percentage of nude mice (PLS10 cells xenograft) | IC50 (PLS10 cells) |
| --- | --- | --- | --- | --- | --- | --- | --- | --- | --- |
| COc1cc(/C=C/C(C)=O)ccc1O [DZG, (E)-4-(4-hydroxy-3-methoxyphenyl)-but-3-en-2-one] | 27.12 ± 1.00 | 0.39 ± 0.03 | 1.60 ± 0.09 | 10% | 59% | 24 cm^3 | significantly reduced | 100% | 153 ± 11.8 µM |
| COc1cc(/C=C/C(=O)CC(=O)/C=C/c2ccc(O)c(OC)c2)ccc1O [Cur, Curcumin] | 26.71 ± 1.26 | 0.40 ± 0.03 | 1.67 ± 0.10 | – | 62% | 38 cm^3 | significantly reduced | 100% | 20.3 ± 0.58 µM |
